These results are taken from patent US5244905A, “N-substituted cycloalkyl and polycycloalkyl polyhydro-β-carboline-phenylalanine- and phenethylamine derivatives” (Warner-Lambert Company, priority 1991, dated 1993).

One test concerns nucleus accumbens. The test can be described thus: Locomotor activity after intra-accumbens amphetamine. The test is classed as in vivo, rat (male Sprague Dawley (CD) Bradford). Particulars: bilateral injection 20 μg into nucleus accumbens. The procedure:
The compounds of the instant invention are useful as antipsychotic agents. Compounds are tested for their ability to reduce the effects of intra-accumbens amphetamine in the rat as described hereinafter.
Male Sprague Dawley (CD) Bradford strain rats are used. The rats are housed in groups of five at a temperature of 21°±2° C. on a 12 hour light-dark cycle of lights-on between 07 hours 00 minutes and 20 hours 00 minutes. Rats are fed CRM diet (Labsure) and allowed water ad libitum.
Rats are anesthetized with chloral hydrate (400 mg/kg SC) and placed in a Kopf stereotaxic frame. Chronically indwelling guide cannulae (constructedof stainless steel tubing 0.65 mm diameter held bilaterally in Parspex holders) are implanted using standard stereotaxic techniques to terminate 3.5 mm above the center of the nucleus accumbens (Ant. 0.4, Vert. 0.0, Lat. 1.6) or 5.0 mm above the central nucleus of the amygdala (Ant. 5.8, Vet. -1.8, Lat. ±4.5) (Atlas of De Groot, 1959). […]
Behavioral experiments are conducted between 07 hours 30 minutes and 21 hours 30 minutes in a quiet room maintained at 22°±2° C. […] Interruptions of the light beam are recorded every 5 minutes. […]
The abilities of the compounds of the invention to inhibit the hyperactivity caused by the injection of amphetamine into the nucleus accumbens of the rat is measured.

The subject of test [1] is aspirin-induced gastric damage. As to the kind of experiment: Aspirin-induced gastric damage. The test is classed as in vivo, rat. Particulars: 15 mg/kg PO, p <0.001 compared with controls. As for the experimental part:
Aspirin-induced gastric damage is assessed in groups of 10 rats each. All animals are fasted for 24 hours before and throughout the experiment. Drug or vehicle is given 10 minutes before an oral dose of 1 mL of a 45-mg/mL suspension of aspirin in 0.5% carboxymethylcellulose (CMC). The animals are sacrificed 5 hours after aspirin administration and the stomachs removed and opened for examination. |Gastric damage is scored as follows: |1 Small hemorrhage |2 Large hemorrhage |3 Small ulcer |4 Large ulcer |5 Perforated ulcer

As to `CC(N)Cc1ccccc1` (stereo not drawn) [amphetamine], the locomotor activity result in the test with nucleus accumbens was “increase in locomotor activity”.
In the case of `CNC(=C[N+](=O)[O-])NCCSCc1ccc(CN(C)C)o1` [ranitidine], the “inhibition of ulcer formation” value in test [1] (10 minutes before aspirin) is 74%. Moreover, in test [1] (±SD, saline control 12.1±6.85), the ulcer score turned out to be 3.2±2.35.
